Data published in patent publication US8217013B2, “Polyene diester antibiotics” (priority 2007, dated 2012).

What was measured:
[1] = test system: Candida albicans; assay: Test of antibacterial activity in vitro (bacteria-inhibition zone); format: cell-based
Description: (§1) Test of Antibacterial Activity In Vitro
(§2) Experiment drugs: the polyene diester compounds prepared by examples 1-12
(§3) Control drugs: amphotericin B (standard product) • mycostatin (standard product) • natamycin (standard product)
2.1 Preparation of Candida albicans suspension: PHARMACOPOEIA OF THE PEOPLES REPUBLIC OF CHINA, second part, 2005 edition, appendix p 81-84.
(§4) Taking appropriate amount of the above mentioned amphotericin B, mycostatin, natamycin and the polyene diester compounds prepared by examples 1-8 and 10-12, dissolving in a little dimethyl sulfoxide respectively, using pH7 phosphate buffer to dilute into solution which is equivalent to contain amphotericin B, mycostatin, natamycin 280 Units per milliliter, taking 1 ml and using pH7 phosphate buffer to quantitatively dilute into solution which is equivalent to contain amphotericin B 1.4 μg/ml and 2.8 μg/ml, and is equivalent to contain 5.6 μg/ml of mycostatin and natamycin.
(§5) In addition, preparing the solution according to the same method, adding 40% defibered sheep serum, using pH7 phosphate buffer to quantitatively dilute into unit solution which is equivalent to contain amphotericin B 1.4 μg/ml and 2.8 μg/ml, and is equivalent to contain 5.6 μg/ml of mycostatin and natamycin. Testing according to PHARMACOPOEIA OF THE PEOPLES REPUBLIC OF CHINA, second part, 2005 edition, appendix XIA The Antibiotics Microorganism Test.
(§6) Medium: Improved Martin Agar Medium, PHARMACOPOEIA OF THE PEOPLES REPUBLIC OF CHINA, second part, 2005 edition, appendix p 84.
Test method: Double-plate counting method; […] bacteria bed 15 ml to replace the double layers, culture temperature: 37° C., time: 24 h; strain concentration: 1% […]

[2] = test system: Saccharomyces cerevisiae; assay: as above; format: cell-based
Description: as §1, §2, §3
2.2 Preparation of Saccharomyces cerevisiae suspension: PHARMACOPOEIA OF THE PEOPLES REPUBLIC OF CHINA, second part, 2005 edition, appendix p 80, p 83.
as §4, §5, §6
(§7) Test method: Double-plate counting method; […] bacteria bed 15 ml to replace the double layers, culture temperature: 37° C., time: 24 h; strain concentration: 1%
(§8) Medium: Modified Martin Broth Medium

[3] = test system: Candida mycoderma; assay: as above; format: cell-based
Description: as §1, §2, §3
2.3 Preparation of Candida mycoderrna suspension: the method is as same as preparation of Saccharomyces cerevisiae suspension
as §4, §5, §6, §7, §8

[4] = test system: esterase; assay: Test of esterase hydrolysis in sheep blood serum (HPLC); format: in vitro ADME
Protocol: Test of Esterase […]
Experiment drugs: the amphotericin B methyl pivalate prepared by example 1
Control drug: amphotericin B (standard product)
The stationary phase: Hypersil ODS2 5 um 4.6 mm×250 mm
The mobile phase: methanol: acetonitrile: EDTA-2Na (0.5 mmol)=60:20:20 flow rate: 1 ml/min
Detection system: ultraviolet detection, detection wavelength: 410 nm
Taking appropriate amount of the above mentioned amphotericin B, and amphotericin B methyl pivalate prepared by example 1, dissolving in a little dimethyl sulfoxide respectively, using pH7 phosphate buffer to dilute into solution which is equivalent to contain amphotericin B 280 Units per milliliter, taking 1 ml and using pH7 phosphate buffer to quantitatively dilute into solution which is equivalent to contain amphotericin B 2.8 μg/ml.
Again, preparing the solution according to the same method, adding 10% defibered sheep blood serum, using pH7 phosphate buffer to quantitatively dilute into solution which is equivalent to contain amphotericin B 2.8 μg/ml.
4. Mixing the amphotericin B methyl pivalate prepared by example 1 with sheep blood serum at 37° C. and culturing.
Referring to the test conditions of HPLC of example 25, wherein the mobile phase is acetonitrile: 0.05M ammonium acetate solution=60:40.

[5] = 1.4 μg/ml after conversion, no serum
[6] = 1.4 μg/ml after conversion, serum added (40% defibered sheep serum)
[7] = 2.8 μg/ml after conversion, no serum
[8] = 2.8 μg/ml after conversion, serum added (40% defibered sheep serum)
[9] = 5.6 μg/ml after conversion, no serum
[10] = 5.6 μg/ml after conversion, serum added (40% defibered sheep serum)

amphotericin B methyl pivalate
diameter of the bacteria-inhibition zone, Candida albicans 0 h [1, 5]: + (7-9 mm: +) | diameter of the bacteria-inhibition zone, Candida albicans 0 h [1, 6]: + (7-9 mm: +) | diameter of the bacteria-inhibition zone, Candida albicans 0 h [1, 7]: ++ (9-12 mm: ++) | diameter of the bacteria-inhibition zone, Candida albicans 0 h [1, 8]: ++ (9-12 mm: ++) | diameter of the bacteria-inhibition zone, Candida albicans 6 h [1, 5]: + (7-9 mm: +) | diameter of the bacteria-inhibition zone, Candida albicans 6 h [1, 6]: ++ (9-12 mm: ++) | diameter of the bacteria-inhibition zone, Candida albicans 6 h [1, 7]: ++ (9-12 mm: ++) | diameter of the bacteria-inhibition zone, Candida albicans 24 h [1, 5]: + (7-9 mm: +) | diameter of the bacteria-inhibition zone, Candida albicans 24 h [1, 7]: ++ (9-12 mm: ++) | diameter of the bacteria-inhibition zone, Candida albicans 48 h [1, 5]: + (7-9 mm: +) | diameter of the bacteria-inhibition zone, Candida albicans 48 h [1, 7]: ++ (9-12 mm: ++) | diameter of the bacteria-inhibition zone, Saccharomyces cerevisiae 0 h [2, 5]: + (7-9 mm: +) | diameter of the bacteria-inhibition zone, Saccharomyces cerevisiae 0 h [2, 6]: + (7-9 mm: +) | diameter of the bacteria-inhibition zone, Saccharomyces cerevisiae 0 h [2, 7]: ++ (9-12 mm: ++) | diameter of the bacteria-inhibition zone, Saccharomyces cerevisiae 0 h [2, 8]: ++ (9-12 mm: ++) | diameter of the bacteria-inhibition zone, Saccharomyces cerevisiae 6 h [2, 5]: + (7-9 mm: +) | diameter of the bacteria-inhibition zone, Saccharomyces cerevisiae 6 h [2, 7]: ++ (9-12 mm: ++) | diameter of the bacteria-inhibition zone, Saccharomyces cerevisiae 24 h [2, 5]: + (7-9 mm: +) | diameter of the bacteria-inhibition zone, Saccharomyces cerevisiae 24 h [2, 7]: ++ (9-12 mm: ++) | diameter of the bacteria-inhibition zone, Saccharomyces cerevisiae 48 h [2, 5]: + (7-9 mm: +) | diameter of the bacteria-inhibition zone, Saccharomyces cerevisiae 48 h [2, 7]: ++ (9-12 mm: ++) | diameter of the bacteria-inhibition zone, Candida mycoderma 0 h [3, 5]: + (7-9 mm: +) | diameter of the bacteria-inhibition zone, Candida mycoderma 0 h [3, 6]: + (7-9 mm: +) | diameter of the bacteria-inhibition zone, Candida mycoderma 0 h [3, 7]: ++ (9-12 mm: ++) | diameter of the bacteria-inhibition zone, Candida mycoderma 0 h [3, 8]: ++ (9-12 mm: ++) | diameter of the bacteria-inhibition zone, Candida mycoderma 6 h [3, 5]: + (7-9 mm: +) | diameter of the bacteria-inhibition zone, Candida mycoderma 6 h [3, 6]: ++ (9-12 mm: ++) | diameter of the bacteria-inhibition zone, Candida mycoderma 6 h [3, 7]: ++ (9-12 mm: ++) | diameter of the bacteria-inhibition zone, Candida mycoderma 24 h [3, 5]: + (7-9 mm: +) | diameter of the bacteria-inhibition zone, Candida mycoderma 24 h [3, 7]: ++ (9-12 mm: ++) | diameter of the bacteria-inhibition zone, Candida mycoderma 48 h [3, 5]: + (7-9 mm: +) | diameter of the bacteria-inhibition zone, Candida mycoderma 48 h [3, 7]: ++ (9-12 mm: ++) | hydrolysis by esterase to release the original drug, after 24 hours ([4]; 10% defibered sheep blood serum, 37° C., 24 hours): most of the diester derivative is hydrolyzed by esterase to release amphotericin B | hydrolysis by esterase under sheep blood serum cultivation, release of the original drug ([4]; sheep blood serum, 37° C., 2, 6 and 24 hours): gradually hydrolyzed by esterase

mycostatin methyl pivalate
diameter of the bacteria-inhibition zone, Candida albicans 0 h [1, 9]: + (7-9 mm: +) | diameter of the bacteria-inhibition zone, Candida albicans 0 h [1, 10]: + (7-9 mm: +) | diameter of the bacteria-inhibition zone, Candida albicans 6 h [1, 9]: + (7-9 mm: +) | diameter of the bacteria-inhibition zone, Candida albicans 6 h [1, 10]: + (7-9 mm: +) | diameter of the bacteria-inhibition zone, Candida albicans 24 h [1, 9]: + (7-9 mm: +) | diameter of the bacteria-inhibition zone, Candida albicans 24 h [1, 10]: + (7-9 mm: +) | diameter of the bacteria-inhibition zone, Candida albicans 48 h [1, 9]: + (7-9 mm: +) | diameter of the bacteria-inhibition zone, Candida albicans 48 h [1, 10]: + (7-9 mm: +) | diameter of the bacteria-inhibition zone, Saccharomyces cerevisiae 0 h [2, 9]: ++ (9-12 mm: ++) | diameter of the bacteria-inhibition zone, Saccharomyces cerevisiae 0 h [2, 10]: + (7-9 mm: +) | diameter of the bacteria-inhibition zone, Saccharomyces cerevisiae 6 h [2, 9]: ++ (9-12 mm: ++) | diameter of the bacteria-inhibition zone, Saccharomyces cerevisiae 6 h [2, 10]: ++ (9-12 mm: ++) | diameter of the bacteria-inhibition zone, Saccharomyces cerevisiae 24 h [2, 9]: ++ (9-12 mm: ++) | diameter of the bacteria-inhibition zone, Saccharomyces cerevisiae 48 h [2, 9]: ++ (9-12 mm: ++) | diameter of the bacteria-inhibition zone, Candida mycoderma 0 h [3, 10]: + (7-9 mm: +) | diameter of the bacteria-inhibition zone, Candida mycoderma 6 h [3, 10]: ++ (9-12 mm: ++)
